# How the values were obtained:
# Test in all cases: relative viability (nuclei count vs DMSO), 5 days (fraction); higher = more cells survive
# NCI-H1793 = system: NCI-H1793
# Procedure, shortened: (§1)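 Lung cancer cell lines in 1536-well plates got either a single drug or a fixed anchor-drug dose together with five library-drug doses (not always all listed) in √10 steps, by pin tool, on the day after seeding. Nuclei were counted after 5 days, and relative viability is the treated-to-vehicle ratio of nuclei counts. Values are medians of duplicate plates.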
# NCI-H1437 = system: NCI-H1437
# Procedure, shortened: as §1
# 201T = system: 201T
# Procedure, shortened: as §1
# LXF-289 = system: LXF-289
# Procedure, shortened: as §1
# NCI-H647 = system: NCI-H647
# Procedure, shortened: as §1
# LCLC-103H = system: LCLC-103H
# Procedure, shortened: as §1
# NCI-H1944 = system: NCI-H1944
# Procedure, shortened: as §1
# NCI-H1395 = system: NCI-H1395
# Procedure, shortened: as §1
# NCI-H2087 = system: NCI-H2087
# Procedure, shortened: as §1
# RERF-LC-KJ = system: RERF-LC-KJ
# Procedure, shortened: as §1
# NCI-H2228 = system: NCI-H2228
# Procedure, shortened: as §1
# CAL-12T = system: CAL-12T
# Procedure, shortened: as §1
# NCI-H1650 = system: NCI-H1650
# Procedure, shortened: as §1
# NCI-H322M = system: NCI-H322M
# Procedure, shortened: as §1
# SK-LU-1 = system: SK-LU-1
# Procedure, shortened: as §1
# NCI-H2405 = system: NCI-H2405
# Procedure, shortened: as §1
# HCC-827 = system: HCC-827
# Procedure, shortened: as §1
# LCLC-97TM1 = system: LCLC-97TM1
# Procedure, shortened: as §1
# NCI-H3122 = system: NCI-H3122
# Procedure, shortened: as §1
# NCI-H727 = system: NCI-H727
# Procedure, shortened: as §1
# BEN = system: BEN
# Procedure, shortened: as §1
compound,measurement,setting,value
O=c1cc(-c2cccc3c2Sc2ccccc2S3)oc(N2CCOCC2)c1 + Cc1cc(Nc2cc(N3CCN(C)CC3)nc(Sc3ccc(NC(=O)C4CC4)cc3)n2)n[nH]1 [Tozasertib] (partner 0.1 µM),relative viability,NCI-H1793; first compound 0.08 µM,0.362
same,relative viability,NCI-H1793; first compound 0.253 µM,0.38
same,relative viability,NCI-H1793; first compound 0.8 µM,0.325
same,relative viability,NCI-H1793; first compound 2.53 µM,0.228
same,relative viability,NCI-H1793; first compound 8 µM,0.245
same,relative viability,NCI-H1437; first compound 0.08 µM,0.385
same,relative viability,NCI-H1437; first compound 0.253 µM,0.477
same,relative viability,NCI-H1437; first compound 0.8 µM,0.43
same,relative viability,NCI-H1437; first compound 2.53 µM,0.381
same,relative viability,NCI-H1437; first compound 8 µM,0.435
same,relative viability,201T; first compound 0.08 µM,0.945
same,relative viability,201T; first compound 0.253 µM,0.982
same,relative viability,201T; first compound 0.8 µM,1.04
same,relative viability,201T; first compound 2.53 µM,0.923
same,relative viability,201T; first compound 8 µM,0.753
same,relative viability,LXF-289; first compound 0.08 µM,0.186
same,relative viability,LXF-289; first compound 0.253 µM,0.164
same,relative viability,LXF-289; first compound 0.8 µM,0.223
same,relative viability,LXF-289; first compound 2.53 µM,0.15
same,relative viability,LXF-289; first compound 8 µM,0.17
same,relative viability,NCI-H647; first compound 0.08 µM,0.325
same,relative viability,NCI-H647; first compound 0.253 µM,0.0459
same,relative viability,NCI-H647; first compound 0.8 µM,0.224
same,relative viability,NCI-H647; first compound 2.53 µM,0.171
same,relative viability,NCI-H647; first compound 8 µM,0.462
same,relative viability,LCLC-103H; first compound 0.08 µM,0.285
same,relative viability,LCLC-103H; first compound 0.253 µM,0.502
same,relative viability,LCLC-103H; first compound 0.8 µM,0.494
same,relative viability,LCLC-103H; first compound 2.53 µM,0.369
same,relative viability,LCLC-103H; first compound 8 µM,0.473
same,relative viability,NCI-H1944; first compound 0.08 µM,0.252
same,relative viability,NCI-H1944; first compound 0.253 µM,0.256
same,relative viability,NCI-H1944; first compound 0.8 µM,0.23
same,relative viability,NCI-H1944; first compound 2.53 µM,0.24
same,relative viability,NCI-H1944; first compound 8 µM,0.232
same,relative viability,NCI-H1395; first compound 0.08 µM,0.755
same,relative viability,NCI-H1395; first compound 0.253 µM,0.738
same,relative viability,NCI-H1395; first compound 0.8 µM,0.762
same,relative viability,NCI-H1395; first compound 2.53 µM,0.681
same,relative viability,NCI-H1395; first compound 8 µM,0.703
same,relative viability,NCI-H2087; first compound 0.08 µM,0.231
same,relative viability,NCI-H2087; first compound 0.253 µM,0.282
same,relative viability,NCI-H2087; first compound 0.8 µM,0.266
same,relative viability,NCI-H2087; first compound 2.53 µM,0.191
same,relative viability,NCI-H2087; first compound 8 µM,0.171
same,relative viability,RERF-LC-KJ; first compound 0.08 µM,0.417
same,relative viability,RERF-LC-KJ; first compound 0.253 µM,0.478
same,relative viability,RERF-LC-KJ; first compound 0.8 µM,0.539
same,relative viability,RERF-LC-KJ; first compound 2.53 µM,0.411
same,relative viability,RERF-LC-KJ; first compound 8 µM,0.389
same,relative viability,NCI-H2228; first compound 0.08 µM,0.213
same,relative viability,NCI-H2228; first compound 0.253 µM,0.186
same,relative viability,NCI-H2228; first compound 0.8 µM,0.248
same,relative viability,NCI-H2228; first compound 2.53 µM,0.163
same,relative viability,NCI-H2228; first compound 8 µM,0.18
same,relative viability,CAL-12T; first compound 0.08 µM,0.296
same,relative viability,CAL-12T; first compound 0.253 µM,0.292
same,relative viability,CAL-12T; first compound 0.8 µM,0.32
same,relative viability,CAL-12T; first compound 2.53 µM,0.232
same,relative viability,CAL-12T; first compound 8 µM,0.224
same,relative viability,NCI-H1650; first compound 0.08 µM,0.471
same,relative viability,NCI-H1650; first compound 0.253 µM,0.458
same,relative viability,NCI-H1650; first compound 0.8 µM,0.392
same,relative viability,NCI-H1650; first compound 2.53 µM,0.294
same,relative viability,NCI-H1650; first compound 8 µM,0.326
same,relative viability,NCI-H322M; first compound 0.08 µM,0.494
same,relative viability,NCI-H322M; first compound 0.253 µM,0.446
same,relative viability,NCI-H322M; first compound 0.8 µM,0.464
same,relative viability,NCI-H322M; first compound 2.53 µM,0.449
same,relative viability,NCI-H322M; first compound 8 µM,0.467
same,relative viability,SK-LU-1; first compound 0.08 µM,0.309
same,relative viability,SK-LU-1; first compound 0.253 µM,0.312
same,relative viability,SK-LU-1; first compound 0.8 µM,0.313
same,relative viability,SK-LU-1; first compound 2.53 µM,0.269
same,relative viability,SK-LU-1; first compound 8 µM,0.322
same,relative viability,NCI-H2405; first compound 0.08 µM,0.667
same,relative viability,NCI-H2405; first compound 0.253 µM,0.752
same,relative viability,NCI-H2405; first compound 0.8 µM,0.72
same,relative viability,NCI-H2405; first compound 2.53 µM,0.638
same,relative viability,NCI-H2405; first compound 8 µM,0.681
same,relative viability,HCC-827; first compound 0.08 µM,0.462
same,relative viability,HCC-827; first compound 0.253 µM,0.409
same,relative viability,HCC-827; first compound 0.8 µM,0.46
same,relative viability,HCC-827; first compound 2.53 µM,0.415
same,relative viability,HCC-827; first compound 8 µM,0.437
same,relative viability,LCLC-97TM1; first compound 0.08 µM,0.223
same,relative viability,LCLC-97TM1; first compound 0.253 µM,0.22
same,relative viability,LCLC-97TM1; first compound 0.8 µM,0.205
same,relative viability,LCLC-97TM1; first compound 2.53 µM,0.228
same,relative viability,LCLC-97TM1; first compound 8 µM,0.207
same,relative viability,NCI-H3122; first compound 0.08 µM,0.488
same,relative viability,NCI-H3122; first compound 0.253 µM,0.404
same,relative viability,NCI-H3122; first compound 0.8 µM,0.355
same,relative viability,NCI-H3122; first compound 2.53 µM,0.424
same,relative viability,NCI-H3122; first compound 8 µM,0.479
same,relative viability,NCI-H727; first compound 0.08 µM,0.656
same,relative viability,NCI-H727; first compound 0.253 µM,0.633
same,relative viability,NCI-H727; first compound 0.8 µM,0.609
same,relative viability,NCI-H727; first compound 2.53 µM,0.535
same,relative viability,NCI-H727; first compound 8 µM,0.668
same,relative viability,BEN; first compound 0.08 µM,0.724
same,relative viability,BEN; first compound 0.253 µM,0.487
same,relative viability,BEN; first compound 0.8 µM,0.423
same,relative viability,BEN; first compound 2.53 µM,0.456
same,relative viability,BEN; first compound 8 µM,0.617
